Structures are written as SMILES.

In the experiment the test system is Bacillus amyloliquefaciens WF02. Description: antagonistic assay (inhibition zone) on Bacillus amyloliquefaciens WF02 plate. In kind it is cell-based. Conditions: 100,000 ppm, 20 μL, 37° C., 48 hours, positive control, read-out: diameter of inhibition zone on WF02 plate. The text has this: To be used as leveling agents for the biological preparation, in the embodiment of the present invention, it is necessary to confirm that the Bidens pilosa extract of the present invention without the effect of inhibiting the growth of the Bacillus amyloliquefaciens WF02 of the present invention, so antagonistic assay was used; wherein ampicillin is known with the effect on inhibiting the growth of the Bacillus amyloliquefaciens, therefore, it was used as a positive control group. First, the Bacillus amyloliquefacien WF02 of the present invention was cultured in the above method and 100 μL of a bacterial solution with an OD600 value of 0.3, which approximately contains 10^8 CFU/mL, was uniformly applied to two agarose plates (diameter 9 cm) and a plurality of circular sterile filter papers (diameter 8 mm) was placed thereon; wherein one plate was for testing the higher concentration (125,000-200,000 ppm) of the Bidens pilosa of the present invention, and the other was for the lower concentration (300-2,000 ppm). […]

With `CC1(C)S[C@@H]2[C@H](NC(=O)[C@H](N)c3ccccc3)C(=O)N2[C@H]1C(=O)O` [ampicillin], the zone of inhibition at 100000 ppm was approximately 18.4 mm.

The record behind these values is patent publication US11737466B2, “Method of improving the ability of plants to resistance diseases” (National Taiwan University, priority 2019, dated 2023).
